From patent publication US20230286973A1, “PROTEIN SECRETION INHIBITORS” (KEZAR LIFE SCIENCES, priority 2020, published 2023)
Where two headings read alike, the source gives them in different places.

Legend:
[1] = system: HER3-ss+4aa/Gaussia Luciferase; experiment: Dox-Induced Her3-ss-Gluc Assay; assay type: cell-based; settings: 24 hr Dox induction, 293FRT/TO cells, read-out: 24 hr Dox Inducible Her3(ss + 4)Gluc 293FRT/TO: Mean IC50
Summary of the method: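 Doxycycline-inducible HER3 signal sequence+4aa/Gaussia luciferase construct, stably integrated in Flp-In 293 T-REx cells; compound dilutions applied with doxycycline at 37° C., 5% CO2.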

[2] = Liver Microsome Stability Assay (rat); settings: rat liver microsomes, with NADPH, 1.0 uM compound
Procedure: (§1) Stability of a compound was assessed in the presence of liver microsomes from various sources—mouse, rat, monkey and human liver microsomes. 1.0 uM compound, 0.4% DMSO in 0.1 M Potassium Phosphate with 1.0 mg/mL liver microsomes, were incubated at 37° C. with or without 1 mM NADPH. The samples were quenched at 0, and 30 minutes.

[3] = system: TNFα-FL/Gaussia Luciferase; experiment: Dox Induced TNFα-FL-Gluc Assay; assay type: cell-based; settings: for IC50: 24 hr Dox induction, 293FRT/TO cells, read-out: 24 hr Dox Inducible TNFaFLGluc 293FRT/TO: Mean IC50; for 24 hr Dox Inducible TNFaFLGluc 293FRT/TO: TNF/PD1: ratio of TNFaFLGluc IC50 to PD1ssGluc IC50
Summary of the method: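 Hygromycin/blasticidin-selected Flp-In 293 T-REx cells, TNFα-FL/Gaussia luciferase fusion under T-REx control; overnight plating, then compound in DMSO/media with doxycycline at 37 °C, 5% CO2; stereo-undefined structures tested as mixtures.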

[4] = Liver Microsome Stability Assay (human); settings: human liver microsomes, with NADPH, 1.0 uM compound
Procedure: as §1

[5] = Liver Microsome Stability Assay (monkey); settings: monkey liver microsomes, with NADPH, 1.0 uM compound
Procedure: as §1

[6] = Liver Microsome Stability Assay (mouse); settings: mouse liver microsomes, with NADPH, 1.0 uM compound
Procedure: as §1

[7] = system: multiple myeloma cell line U266B1; experiment: U266 Cell Viability Assay; assay type: cell-based, human; settings: Homo sapiens, U-266, 48 h, U266B1 cells, Celltiter-Glo
Summary of the method: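 After growth in serum-supplemented RPMI 1640, cells received serially diluted compound in DMSO/media and were kept 48 hours before a CellTiter-Glo luminescence readout.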

[8] = system: PD1-ss+10aa/Gaussia Luciferase; experiment: Dox-Induced PD1-ss-Gluc Assay; assay type: cell-based; settings: 24 hr Dox induction, 293FRT/TO cells, read-out: 24 hr Dox Inducible PD1ssGluc 293FRT/TO: Mean IC50
Summary of the method: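 Doxycycline-induced expression of a PD1-ss+10aa/Gaussia luciferase reporter is measured in stable Flp-In 293 T-REx cells. Compound dilutions containing doxycycline are added one day after plating and incubated at 37 °C, 5% CO2. Values for unassigned stereocentres refer to stereoisomer mixtures.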

[9] = system: IL-2-FL/Gaussia Luciferase; experiment: Dox Induced IL2-FL-Gluc Assay; assay type: cell-based; settings: for IC50: 24 hr Dox induction, 293FRT/TO cells, read-out: 24 hr Dox Inducible IL2FLGluc 293FRT/TO: Mean IC50; for 24 hr Dox Inducible IL2FLGluc 293FRT/TO: IL2/PD1: ratio of IL2FLGluc IC50 to PD1ssGluc IC50
Summary of the method: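 A hygromycin- and blasticidin-resistant 293 T-REx clone carrying inducible IL-2–Gaussia luciferase (full-length IL-2, residues 1-153) serves as the cell system. After overnight plating, the cells get test compounds together with doxycycline in DMSO/media and are incubated at 37° C, 5% CO2.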

[10] = system: multiple myeloma cell line NCI-H929; experiment: H929 Cell Viability Assay; assay type: cell-based, human; settings: Homo sapiens, NCI-H929, 48 h, NCI-H929 cells, Celltiter-Glo
Summary of the method: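 A 48-hour compound treatment of cells in 10% FBS RPMI medium was followed by luciferase-based viability quantification.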

[11] = '<=>' given where both are I.A.

IC50 [1] | Liver Microsome Stability (Multiple Species): Rat - % Remaining after 30 min w/NADPH [2] | IC50 [3] | Liver Microsome Stability (Multiple Species): Human - % Remaining after 30 min w/NADPH [4] | Liver Microsome Stability (Multiple Species): Monkey - % Remaining after 30 min w/NADPH [5] | Liver Microsome Stability (Multiple Species): Mouse - % Remaining after 30 min w/NADPH [6] | EC50 [7] | IC50 [8] | IC50 [9] | EC50 [10] | IC50 ([1]; mean) | IC50 ([3]; mean) | IC50 ([8]; mean) | IC50 ([9]; mean) | SMILES | 24 hr Dox Inducible TNFaFLGluc 293FRT/TO: TNF/PD1 [3] | 24 hr Dox Inducible IL2FLGluc 293FRT/TO: IL2/PD1 [9] | 24 hr Dox Inducible TNFaFLGluc 293FRT/TO: TNF/PD1 [3, 11] | 24 hr Dox Inducible IL2FLGluc 293FRT/TO: IL2/PD1 [9, 11]
27.8 nM | 52.7% | 683 nM | 32.5% | 25.4% | 53% | > 25000 nM | 15.8 nM | 65.8 nM | 731 nM | – | – | – | – | NC(=O)N1CC(Oc2ccc(N3CCC[C@@H]3c3csc(NC(=O)c4cccn4Cc4ccnc(F)c4)n3)cc2)C1 [Compound A130, (R)-N-(4-(1-(4-((1-carbamoylazetidin-3-yl)oxy)phenyl)pyrrolidin-2-yl)thiazol-2-yl)-1-((2-fluoropyridin-4-yl)methyl)-1H-pyrrole-2-carboxamide] | 43.1 | 4.2 | – | –
2.61 nM | 11% | 27.1 nM | 4.28% | 1.43% | 6.31% | > 25000 nM | 0.89 nM | 3.87 nM | 54.1 nM | – | – | – | – | Cc1ccc(N2CCC[C@@H]2c2csc(NC(=O)c3cccn3Cc3ccncc3)n2)cc1 [Compound A21, (R)-1-(pyridin-4-ylmethyl)-N-(4-(1-(p-tolyl)pyrrolidin-2-yl)thiazol-2-yl)-1H-pyrrole-2-carboxamide] | 30.4 | 4.3 | – | –
– | 2.69% | – | 0.24% | 0.15% | 6.6% | > 25000 nM | – | – | > 25000 nM | > 25000 nM | > 25000 nM | 2690 nM | > 25000 nM | COC(=O)Cn1cnc(/C=C/c2csc(NC(=O)c3cccn3Cc3ccnc(F)c3)n2)c1C [Compound B120, methyl (E)-2-(4-(2-(2-(1-((2-fluoropyridin-4-yl)methyl)-1H-pyrrole-2-carboxamido)thiazol-4-yl)vinyl)-5-methyl-1H-imidazol-1-yl)acetate] | – | – | >9.29 | >9.3
– | 14.8% | – | 14.9% | 3.66% | 5.06% | > 25000 nM | – | – | 22800 nM | 1330 nM | 16300 nM | 879 nM | 1800 nM | CCC(CC#N)Cn1cccc1C(=O)Nc1nc([C@H]2CCCN2c2ccccc2)cs1 (stereo partly drawn) [Compound C113, 1-(2-(cyanomethyl)butyl)-N-(4-((R)-1-phenylpyrrolidin-2-yl)thiazol-2-yl)-1H-pyrrole-2-carboxamide] | – | – | 18.6 | 2
– | 0.76% | – | 0.07% | 0.13% | 6.58% | > 25000 nM | – | – | 2960 nM | 59.6 nM | 943 nM | 63.7 nM | 280 nM | CCc1ccc(N2CCC[C@@H]2c2csc(NC(=O)c3cccn3CC3CCOCC3)n2)cn1 [Compound C96, (R)-N-(4-(1-(6-ethylpyridin-3-yl)pyrrolidin-2-yl)thiazol-2-yl)-1-((tetrahydro-2H-pyran-4-yl)methyl)-1H-pyrrole-2-carboxamide] | – | – | 14.8 | 4.4
> 25000 nM | 27.3% | > 25000 nM | 30.7% | 43.4% | 59.3% | > 25000 nM | 5260 nM | > 25000 nM | > 25000 nM | – | – | – | – | O=C(Nc1nc(/C=C/c2c[nH]cn2)cs1)c1cccn1Cc1ccnc(F)c1 [Compound B114, (E)-N-(4-(2-(1H-imidazol-4-yl)vinyl)thiazol-2-yl)-1-((2-fluoropyridin-4-yl)methyl)-1H-pyrrole-2-carboxamide] | >4.76 | >4.8 | – | –
40.3 nM | 26.3% | 131 nM | 4.63% | 2.72% | 7.28% | 4700 nM | 16.4 nM | 39.6 nM | 340 nM | – | – | – | – | Nc1ccc(N2CCC[C@@H]2c2csc(NC(=O)c3cccn3Cc3ccncc3)n2)cc1 [Compound A20] | 8 | 2.4 | – | –
1070 nM | 88.1% | 11400 nM | 51% | 17.6% | 71.9% | 7780 nM | 595 nM | 1840 nM | 5730 nM | – | – | – | – | O=C(Nc1nc([C@H]2CCCN2c2ccc(OC3CCNC3)cc2)cs1)c1cccn1Cc1ccnc(F)c1 (stereo partly drawn) [Compound A80, 1-((2-fluoropyridin-4-yl)methyl)-N-(4-((2R)-1-(4-(pyrrolidin-3-yloxy)phenyl)pyrrolidin-2-yl)thiazol-2-yl)-1H-pyrrole-2-carboxamide] | 19.1 | 3.1 | – | –
> 25000 nM | 0.18% | > 25000 nM | 0.09% | 0.35% | 0.11% | > 25000 nM | 15500 nM | > 25000 nM | 13400 nM | – | – | – | – | CC(C)c1ccc(/C=C/c2csc(NC(=O)c3cccn3Cc3cccnc3)n2)nc1 [Compound B66, (E)-N-(4-(2-(5-isopropylpyridin-2-yl)vinyl)thiazol-2-yl)-1-(pyridin-3-ylmethyl)-1H-pyrrole-2-carboxamide] | >1.61 | >1.6 | – | –
